Drawing on patent US5476944A, “Derivatives of cyclic phenolic thioethers” (G. D. Searle & Co., priority 1994, dated 1995), this text covers IC50 for eleven compounds.

As a reminder, the IC50 is the concentration that gives 50% inhibition.

Where only a bound is given, the exact number is not on record here.

One test addresses T1, cellular COX-II (Homo sapiens, UniProt P35354).
T1 construct: stimulated human fetal dermal fibroblasts (HFDF, derived from primary cell cultures); endogenous in cells; host or cells: human fetal dermal fibroblasts (HFDF), primary, stimulated with IL-1 beta
T1 sequence (P35354 18-604): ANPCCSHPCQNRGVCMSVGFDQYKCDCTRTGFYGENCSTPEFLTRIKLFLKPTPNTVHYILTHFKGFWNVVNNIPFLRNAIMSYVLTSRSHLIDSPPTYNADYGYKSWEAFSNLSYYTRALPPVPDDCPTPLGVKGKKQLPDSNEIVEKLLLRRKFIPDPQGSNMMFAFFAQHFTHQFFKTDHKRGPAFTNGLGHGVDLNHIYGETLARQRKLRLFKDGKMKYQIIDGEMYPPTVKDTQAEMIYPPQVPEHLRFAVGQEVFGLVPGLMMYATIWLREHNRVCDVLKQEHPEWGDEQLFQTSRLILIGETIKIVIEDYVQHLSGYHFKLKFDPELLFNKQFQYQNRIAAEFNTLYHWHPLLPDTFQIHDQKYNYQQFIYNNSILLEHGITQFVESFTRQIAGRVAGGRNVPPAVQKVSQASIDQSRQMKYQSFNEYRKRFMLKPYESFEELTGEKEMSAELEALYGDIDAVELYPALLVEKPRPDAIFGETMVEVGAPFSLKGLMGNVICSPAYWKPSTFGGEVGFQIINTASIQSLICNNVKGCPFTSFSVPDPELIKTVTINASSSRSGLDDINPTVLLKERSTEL
Description: Cellular COX-II Assay (Cell Fibroblast Assay), IL-1 stimulated human fetal dermal fibroblasts, PGE2. As to conditions: IL-1 beta stimulated human fetal dermal fibroblasts. The class given is cell-based. The protocol:
The compounds of the invention are evaluated with respect to the inhibition of cellular COX-II in vitro according to the following Cellular COX-II Assay (Cell Fibroblast Assay).
Cellular COX-II Assay (Cell Fibroblast Assay)
Inhibition of cellular COX-II by test compounds is determined using stimulated human fetal dermal fibroblasts (HFDF, derived from primary cell cultures). Fibroblasts are cultured in microtiter wells at 1.5×10^4 cells/well in Dulbecco's Modified Eagle's Media (DMEM)(Gibco/BRL, Gaithersburg, Md. Sigma Chemical Co., St. Louis, Mo.) containing 4500 mg glucose/L, 100 units penicillin G/ml and 0.1 mg streptomycin/ml, 4 mM L-glutamine, 25 mM Hepes and 10% Fetal Bovine Serum (Gibco/BRL, Gaithersburg, Md. Bioproducts For Science, Inc., Indianapolis,Ind.). Following a 3-day incubation at 37° C., the culture media is removed by aspiration using low vacuum, and the cells are stimulated overnight with medium containing human recombinant IL-1 (interleukin-1) beta (1 ng/ml)(Cistron, Pine Brook, N.J.). The next day, the fibroblasts are washed with Phosphate Buffered Saline, and 185 μl of DMEM is added to each well. The cells are placed in a 37° C. incubator for 15 minutes. Compounds are then added to the cells using seven half-log dilutions in duplicate determinations. Cells are incubated with test compounds at 37° C. for 30 minutes. The COX-II substrate arachidonic acid (20 μM; Nu-Chek-Prep Inc., Elysian, Minn.) is then added to the cell cultures and the plates are incubated for 10 minutes at 37° C. Supernatants are collected and Prostaglandin E2 (PGE2) production is measured by an enzyme-linked immunosorbent assay (ELISA; antibodies produced by Cayman Chemical Company, Ann Arbor, Mich.). […] PG,60
The following is a description of how the activities of the compounds of the present invention may be determined.
A run of this assay consists of one (or more) plates, each containing, along with the standard (in row A), (1) two wells of unstimulated material (in col. 12), (2) five wells of stimulated material (in col. 12), (3) seven wells (one per concentration) for indomethacin (in col. 11), and (4) two wells at each of seven concentrations for five test compounds, one of which is a repeat of indomethacin. The response (ng/ml Eicosanoid) is estimated from the Standard curve and is highest at low concentrations and decreases as the concentration increases. If the response is plotted on the y-axis and the log of the concentration is plotted on the x-axis, the dose-response pattern for these assays is typically a symmetrical, sigmoidal shaped curve. If a full range of concentrations is used, the complete sigmoidal curve may be seen, starting with an upper asymptote, falling at some degree of steepness, and then leveling off at a lower asymptote. The IC50 is defined as the concentration corresponding to a response midway between the upper and lower plateaus. A theoretic "dose-response" model is used to estimate the IC50.
The procedure described below was used to define the minimum and maximum responses for the compounds on a plate.
The procedure uses information for indomethacin and the rest of the plate in defining the minimum and maximum response. The justification for doing this is as follows. Enough runs have been done with indomethacin to determine and use a range of concentrations such that the response to the lowest concentrations is on the upper plateau of the sigmoidal curve and the response to the highest concentrations is on the lower plateau of the sigmoidal curve. For the other compounds, if a response is measured which is less than the response for the unstimulated wells, then this response may be considered to be another estimate of a minimal response. Likewise, if a response is measured which is greater than the response for the stimulated wells, then this response may be considered to be another estimate of a maximal response. Based on this reasoning, the minimum is estimated as follows: […]

The next test has as its target T2, COX-I (Homo sapiens, UniProt P23219).
T2 construct: made in house; host or cells: SF9 insect cells, recombinant baculovirus (pVL1393); coding fragment from Cayman Chemical
Description: Human Enzyme Assay, recombinant COX-I (PGE2 ELISA). The class given is biochemical. As for the experimental part: (§1) The compounds of the invention are evaluated with respect to COX-I and COX-II activity in vitro using an enzyme based assay according to the following assay procedure.
(§2) (a) Preparation of Recombinant COX Baculoviruses
(§3) A 2.0 kb fragment containing the coding region for either human or murine COX-I (Caymen Chemical, Ann Arbor, Mich.), or human or murine COX-II (Caymen Chemical, Ann Arbor, Mich.), was cloned into a BamH1 site of the baculovirus transfer vector pVL1393 (Invitrogen, Palo Alto, Calif.) to generate a baculovirus transfer vector. Recombinant baculoviruses were isolated by transfecting 4 μg of baculovirus transfer vector DNA into SF9 cells (2×10e8) (Invitrogen, Palo Alto, Calif.) along with 200 ng of linearized bacium by the phosphate method. See M. D. Summers et al., "A Manual of Methods for Baculovirus Vectors and Insect Cell Culture Procedure," TEXAS AGRICULTURE EXPERIMENTAL STATION BULLETIN, No. 1555 (1987), which is incorporated herein by reference. Recombinant viruses were purified by three rounds of plaque purification, and high titer (10e7-10e8 pfu/ml) stocks of virus were prepared. For large scale production, SF9 insect cells (Invitrogen, Palo Alto, Calif.) were infected in 10 liter fermentors (0.5×10^6 /ml) with the recombinant baculovirus stock, such that the multiplicity of infection was 0.1. After 72 hours, the cells were centrifuged and the cell pellet was homogenized in Tris/Sucrose (50 mM: 25%, pH 8.0) containing 1% CHAPS. The homogenate was centrifuged at 10,000×G for 30 minutes, and the resultant supernatant was stored at -80° C. before being assayed for COX activity.
(§4) b. Assay for COX-I and COX-II activity:
(§5) COX activity was assayed as PGE2 formed/μg protein/time using an ELISA (Caymen Chemical, Ann Arbor, Mich.) to detect the prostaglandin E2 released. CHAPS-solubilized insect cell membranes containing the appropriate COX enzyme were incubated in a potassium phosphate buffer (50 mM, pH 8.0) containing phenol (0.5 mM), and heme (1 μM) with the addition of arachidonic acid (10 μM). Compounds of the present invention were pre-incubated with the enzyme for 10-20 minutes prior to the addition of the COX-I and COX-II enzyme substrate arachidonic acid (10 μM). Any reaction between the arachidonic acid and the enzyme was stopped after ten minutes at 37° C./room temperature by transferring 40 μl of reaction mix into […] ELISA buffer and 25 μM indomethacin. The PGE2 formed was measured by standard ELISA technology (Cayman Chemical, Ann Arbor, Mich.).
(§6) The results for this assay, as well as for the next assay (COX-II Cell Fibroblast Assay) are expressed in terms of COX-I or II activity as an IC50 value (50% inhibitory concentration), as defined as the amount of prostaglandin E2 (PGE2) formed per protein per time in response to the enzyme substrate arachidonic acid.
In general terms: ELISA stands for enzyme-linked immunosorbent assay.

A further test concerns the target T3, COX-II (Homo sapiens, UniProt P35354).
T3 construct: made in house; host or cells: SF9 insect cells, recombinant baculovirus (pVL1393); coding fragment from Cayman Chemical
T3 sequence (P35354 18-604): T1 sequence (P35354 18-604)
Description: Human Enzyme Assay, recombinant COX-II (PGE2 ELISA). The test is classed as biochemical. As for the experimental part:
as §1, §2, §3, §4, §5, §6

T2 sequence (P23219 24-599): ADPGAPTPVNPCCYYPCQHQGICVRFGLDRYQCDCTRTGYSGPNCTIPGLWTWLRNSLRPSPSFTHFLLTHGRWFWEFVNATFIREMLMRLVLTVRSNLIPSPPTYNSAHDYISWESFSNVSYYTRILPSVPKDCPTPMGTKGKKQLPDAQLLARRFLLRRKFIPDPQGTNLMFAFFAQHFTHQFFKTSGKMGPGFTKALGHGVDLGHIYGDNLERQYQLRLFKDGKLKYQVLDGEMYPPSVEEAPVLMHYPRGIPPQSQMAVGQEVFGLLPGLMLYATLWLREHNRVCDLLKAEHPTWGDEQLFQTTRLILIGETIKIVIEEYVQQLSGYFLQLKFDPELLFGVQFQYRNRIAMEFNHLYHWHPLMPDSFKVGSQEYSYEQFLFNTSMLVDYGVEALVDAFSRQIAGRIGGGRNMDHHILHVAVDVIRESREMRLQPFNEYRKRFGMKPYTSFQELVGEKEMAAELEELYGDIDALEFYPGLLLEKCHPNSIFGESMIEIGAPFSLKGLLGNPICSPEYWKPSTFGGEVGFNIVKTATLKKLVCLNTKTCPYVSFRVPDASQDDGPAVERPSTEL

In the case of `CC(C)(C)c1ccc(S[C@H]2CCC[C@H]2OCC(=O)O)c(C(C)(C)C)c1` (racemic) [Example 80, (±)cis-2-[[2-[[2,4-bis(1,1-dimethylethyl)phenyl]thio]cyclopentyl]oxy]acetic acid], the IC50 was 602 nM against cellular COX-II, 28500 nM on COX-I and 937 nM at COX-II.
On the same counts, the results for `CC(C)(C)c1ccc(S[C@@H]2CCC[C@H]2OCC(=O)O)c(C(C)(C)C)c1` (racemic) [Example 81, (±)trans-2-[[2-[[2,4-bis(1,1-dimethylethyl)phenyl]-thio]cyclopentyl]oxy]acetic acid] are 438 nM, 94600 nM and 1430 nM.
Regarding `CC(C)(C)c1cc(S[C@@H]2CCC[C@H]2OCC(=O)O)cc(C(C)(C)C)c1` (relative stereo) [Example 76, (±)trans-2-[[2-[[3,5-bis(1,1-dimethylethyl)phenyl]thio]cyclopentyl]oxy]acetic acid], the figures for the IC50 at cellular COX-II, at COX-I and at COX-II were 5590 nM, over 100000 nM and over 100000 nM, respectively.
On to `CC(C)(C)c1cc(S[C@H]2CCC[C@H]2OCC(=O)O)cc(C(C)(C)C)c1` (relative stereo) [Example 77], for which the IC50 against cellular COX-II was 170 nM; at COX-I, over 100000 nM; at COX-II, 5160 nM.
With `CC(C)(C)c1ccc(O[C@@H]2CCC[C@H]2OCC(=O)O)c(C(C)(C)C)c1` (relative stereo) [Example 101, trans-2-[[2-[2,4-bis(1,1-dimethylethyl)phenoxy]cyclopentyl]oxy]acetic acid], the 50% inhibitory concentration (IC50) is 840 nM against cellular COX-II, over 100000 nM at COX-I and over 100000 nM at COX-II.
On to `CC(C)(C)c1cc(S[C@H]2CCC[C@H]2OCC(=O)O)cc(C(C)(C)C)c1` (single isomer, unassigned) [Example 84, (+)cis-2-[[2-[[3,5-bis(1,1-dimethylethyl)phenyl]thio]cyclopentyl]oxy]aceticacid], for which the IC50 was 420 nM at cellular COX-II, over 100000 nM on COX-I and 3700 nM at COX-II.
Turning to `CC(C)(C)c1cc(S[C@H]2CCC[C@H]2OCC(=O)O)cc(C(C)(C)C)c1` (single isomer, unassigned) [Example 85, (-)cis-2-[[2-[[3,5-bis(1,1-dimethylethyl)phenyl]thio]cyclopentyl]oxy]aceticacid], the concentration for half-maximal inhibition (IC50) at cellular COX-II amounted to 163 nM; on COX-II, 2500 nM.
Turning to `CC(C)(C)c1cc(S[C@@H]2CCCC[C@H]2OCC(=O)O)cc(C(C)(C)C)c1` (single isomer, unassigned) [Example 89, (-)trans-2-[[2-[[3,5-bis(1,1-dimethylethyl)phenyl]thio]cyclohexyl]oxy]acetic acid], the IC50 on cellular COX-II was 576 nM; at COX-I it was over 100000 nM; on COX-II it was 3400 nM.
Take `CC(C)(C)c1ccc(S[C@@H]2CCC[C@H]2OCC(=O)O)c(C(C)(C)C)c1` (single isomer, unassigned) [Example 92, (+)trans-2-[[2-[[2,4-bis(1,1-dimethylethyl)phenyl]thio]cyclopentyl]oxy]acetic acid]: the figures for the IC50 against cellular COX-II, at COX-I and on COX-II were 246 nM, over 100000 nM and 3880 nM, respectively.
Turning to `CC(C)(C)c1ccc(S[C@@H]2CCC[C@H]2OCC(=O)O)c(C(C)(C)C)c1` (single isomer, unassigned) [Example 93, (-)trans-2-[[2-[[2,4-bis(1,1-dimethylethyl)phenyl]thio]cyclopentyl]oxy]acetic acid], the results for the concentration for half-maximal inhibition (IC50) on cellular COX-II, on COX-I and at COX-II were 334 nM, over 100000 nM and 7660 nM, respectively.
As to `CC(C)(C)c1ccc(S[C@H]2CCC[C@H]2OCC(=O)O)c(C(C)(C)C)c1` (single isomer, unassigned) [Example 97, (-)cis-2-[[2-[[2,4-bis(1,1-dimethylethyl)phenyl]thio]cyclopentyl]oxy]aceticacid], the IC50 on cellular COX-II stood at 227 nM; on COX-I, 92100 nM; at COX-II it was 2000 nM.
